Data: PMC10247784, “Physiological activation of human and mouse bitter taste receptors by bile acids” (Communications Biology, 2023)
Where “and” joins values, the source holds several entries; their conditions need not be identical. Equal entries are not always repeated.

Biological target: T1, human TAS2R14 (Homo sapiens, UniProt Q9NYV8)
T1 construct: expressed in transfected cells; host or cells: HEK293T-Gα16gust44
T1 sequence (Q9NYV8 1-317): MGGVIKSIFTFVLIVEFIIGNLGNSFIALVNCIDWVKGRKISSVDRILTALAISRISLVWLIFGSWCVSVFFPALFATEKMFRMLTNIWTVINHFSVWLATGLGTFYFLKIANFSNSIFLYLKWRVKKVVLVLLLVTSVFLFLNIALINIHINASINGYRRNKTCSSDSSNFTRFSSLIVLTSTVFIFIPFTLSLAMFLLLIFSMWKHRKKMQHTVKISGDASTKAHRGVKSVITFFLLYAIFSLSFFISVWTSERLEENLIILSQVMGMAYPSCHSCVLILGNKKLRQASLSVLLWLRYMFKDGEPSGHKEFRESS
Assay: Calcium imaging assay (FLIPR), HEK293T-Gα16gust44 cells transfected with human TAS2R14
Type: cell-based
Conditions: for RLU: TAS2R14 trace
Summary of the method: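 Read-out is Fluo-4 fluorescence change (ΔF/F) after automated application of bile acids (DMSO stocks) to transiently transfected cells. Values are corrected for empty-vector cells and normalized to buffer. Dose-response from three independent experiments in duplicate; threshold concentration set at p < 0.01 versus mock.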

C[C@H](CCC(=O)NCCS(=O)(=O)O)[C@H]1CC[C@H]2[C@@H]3CC[C@@H]4C[C@H](O)CC[C@]4(C)[C@H]3CC[C@]12C [Taurolithocholic Acid, taurolithocholic acid]
Efficacy = maximal amplitude (ΔF/F) (TAS2R14, bile acids, mean): 0.07188
Efficacy (maximal amplitude ΔF/F), individual data points (TAS2R14, bile acids, single replicates, listed as TLCA): 0.06981 and 0.08988 and 0.05106
RLU (Time (s) 0): 0 RLU
RLU (Time (s) 2 (Taurocholic Acid 2.016)): 5.076 RLU
RLU (Time (s) 4 (Taurocholic Acid 4.016)): -5.108 RLU
RLU (Time (s) 6 (Taurocholic Acid 6.016)): -10.1397 RLU
RLU (Time (s) 8 (Taurocholic Acid 8.016)): -25.9369 RLU
RLU (Time (s) 12 (Taurocholic Acid 12.016)): -47.2431 RLU
RLU (Time (s) 14 (Taurocholic Acid 14.016)): -37.8259 RLU
RLU (Time (s) 16 (Taurocholic Acid 16.016)): -67.1139 RLU
RLU (Time (s) 18 (Taurocholic Acid 18.016)): -63.8827 RLU
RLU (Time (s) 18.797 (Chenodeoxycholic Acid 18.765)): -68.311 RLU
RLU (Time (s) 20.797 (Chenodeoxycholic Acid 20.781)): -66.196 RLU
RLU (Time (s) 22.797 (Chenodeoxycholic Acid 22.781)): -50.0226 RLU
RLU (Time (s) 24.797 (Chenodeoxycholic Acid 24.781)): -48.2767 RLU
RLU (Time (s) 26.797 (Chenodeoxycholic Acid 26.781)): -41.6616 RLU
RLU (Time (s) 28.797 (Chenodeoxycholic Acid 28.781)): -45.6719 RLU
RLU (Time (s) 30.797 (Chenodeoxycholic Acid 30.781)): -13.6241 RLU
RLU (Time (s) 32.797 (Chenodeoxycholic Acid 32.781)): 14.5625 RLU
RLU (Time (s) 34.797 (Chenodeoxycholic Acid 34.781)): 34.5332 RLU
RLU (Time (s) 36.797 (Chenodeoxycholic Acid 36.781)): 37.8124 RLU
RLU (Time (s) 38.797 (Chenodeoxycholic Acid 38.781)): 50.8625 RLU
RLU (Time (s) 40.797 (Chenodeoxycholic Acid 40.781)): 58.2474 RLU
RLU (Time (s) 42.797 (Chenodeoxycholic Acid 42.781)): 67.9279 RLU
RLU (Time (s) 44.797 (Chenodeoxycholic Acid 44.781)): 76.8016 RLU
RLU (Time (s) 46.797 (Chenodeoxycholic Acid 46.781)): 99.8168 RLU
RLU (Time (s) 48.797 (Chenodeoxycholic Acid 48.781)): 113.593 RLU
RLU (Time (s) 50.797 (Chenodeoxycholic Acid 50.781)): 125.702 RLU
RLU (Time (s) 52.797 (Chenodeoxycholic Acid 52.781)): 143.488 RLU
RLU (Time (s) 54.797 (Chenodeoxycholic Acid 54.781)): 148.335 RLU
RLU (Time (s) 56.797 (Chenodeoxycholic Acid 56.781)): 163.155 RLU
RLU (Time (s) 58.797 (Chenodeoxycholic Acid 58.781)): 176.389 RLU
RLU (Time (s) 60.797 (Chenodeoxycholic Acid 60.781)): 197.723 RLU
RLU (Time (s) 62.797 (Chenodeoxycholic Acid 62.781)): 213.291 RLU
RLU (Time (s) 64.797 (Chenodeoxycholic Acid 64.781)): 213.968 RLU
RLU (Time (s) 66.797 (Chenodeoxycholic Acid 66.781)): 225.512 RLU
RLU (Time (s) 68.797 (Chenodeoxycholic Acid 68.781)): 237.861 RLU
RLU (Time (s) 70.797 (Chenodeoxycholic Acid 70.781)): 234.615 RLU
RLU (Time (s) 72.797 (Chenodeoxycholic Acid 72.781)): 231.58 RLU
RLU (Time (s) 74.797 (Chenodeoxycholic Acid 74.781)): 268.946 RLU
RLU (Time (s) 76.797 (Chenodeoxycholic Acid 76.781)): 267.933 RLU
RLU (Time (s) 78.797 (Chenodeoxycholic Acid 78.781)): 291.733 RLU
RLU (Time (s) 80.797 (Chenodeoxycholic Acid 80.781)): 290.533 RLU
RLU (Time (s) 82.797 (Chenodeoxycholic Acid 82.781)): 307.412 RLU
RLU (Time (s) 84.797 (Chenodeoxycholic Acid 84.781)): 297.633 RLU
RLU (Time (s) 86.797 (Chenodeoxycholic Acid 86.781)): 303.737 RLU
RLU (Time (s) 88.797 (Chenodeoxycholic Acid 88.781)): 299.661 RLU
RLU (Time (s) 90.797 (Chenodeoxycholic Acid 90.781)): 303.944 RLU
RLU (Time (s) 92.797 (Chenodeoxycholic Acid 92.781)): 328.349 RLU
RLU (Time (s) 94.797 (Chenodeoxycholic Acid 94.781)): 307.307 RLU
RLU (Time (s) 96.797 (Chenodeoxycholic Acid 96.781)): 314.559 RLU
RLU (Time (s) 98.797 (Chenodeoxycholic Acid 98.781)): 326.967 RLU
RLU (Time (s) 100.797 (Chenodeoxycholic Acid 100.781)): 302.894 RLU
RLU (Time (s) 102.797 (Chenodeoxycholic Acid 102.781)): 324.498 RLU
RLU (Time (s) 104.797 (Chenodeoxycholic Acid 104.781)): 347.898 RLU
RLU (Time (s) 106.797 (Chenodeoxycholic Acid 106.781)): 338.946 RLU
RLU (Time (s) 108.797 (Chenodeoxycholic Acid 108.781)): 361.614 RLU
RLU (Time (s) 110.797 (Chenodeoxycholic Acid 110.781)): 335.334 RLU
RLU (Time (s) 112.797 (Chenodeoxycholic Acid 112.781)): 367.933 RLU
RLU (Time (s) 114.797 (Chenodeoxycholic Acid 114.781)): 388.996 RLU
RLU (Time (s) 116.797 (Chenodeoxycholic Acid 116.781)): 373.414 RLU
RLU (Time (s) 118.797 (Chenodeoxycholic Acid 118.781)): 374.133 RLU
RLU (Time (s) 120.797 (Chenodeoxycholic Acid 120.781)): 378.298 RLU
RLU (Time (s) 122.797 (Chenodeoxycholic Acid 122.781)): 394.755 RLU
RLU (Time (s) 124.797 (Chenodeoxycholic Acid 124.781)): 385.131 RLU
RLU (Time (s) 126.797 (Chenodeoxycholic Acid 126.781)): 394.257 RLU
RLU (Time (s) 128.797 (Chenodeoxycholic Acid 128.781)): 394.724 RLU
RLU (Time (s) 130.797 (Chenodeoxycholic Acid 130.781)): 379.935 RLU
RLU (Time (s) 132.797 (Chenodeoxycholic Acid 132.781)): 394.817 RLU
RLU (Time (s) 134.797 (Chenodeoxycholic Acid 134.781)): 375.334 RLU
RLU (Time (s) 136.797 (Chenodeoxycholic Acid 136.781)): 397.788 RLU
RLU (Time (s) 137.562 (Taurocholic Acid 137.563, Chenodeoxycholic Acid 137.546)): 382.953 RLU
RLU (Time (s) 143.578 (Taurocholic Acid 143.563, Chenodeoxycholic Acid 143.546)): 394.002 RLU
RLU (Time (s) 149.578 (Taurocholic Acid 149.563, Chenodeoxycholic Acid 149.546)): 363.524 RLU
RLU (Time (s) 155.578 (Taurocholic Acid 155.563, Chenodeoxycholic Acid 155.546)): 370.686 RLU
RLU (Time (s) 161.578 (Taurocholic Acid 161.563, Chenodeoxycholic Acid 161.546)): 390.532 RLU
RLU (Time (s) 167.578 (Taurocholic Acid 167.563, Chenodeoxycholic Acid 167.546)): 378.911 RLU
RLU (Time (s) 173.578 (Taurocholic Acid 173.563, Chenodeoxycholic Acid 173.546)): 356.99 RLU
RLU (Time (s) 179.578 (Taurocholic Acid 179.563, Chenodeoxycholic Acid 179.546)): 351.344 RLU
RLU (Time (s) 191.578 (Taurocholic Acid 191.563, Chenodeoxycholic Acid 191.546)): 317.716 RLU
RLU (Time (s) 197.578 (Taurocholic Acid 197.563, Chenodeoxycholic Acid 197.546)): 291.899 RLU
RLU (Time (s) 209.578 (Taurocholic Acid 209.563, Chenodeoxycholic Acid 209.546)): 252.636 RLU
RLU (Time (s) 221.578 (Taurocholic Acid 221.563, Chenodeoxycholic Acid 221.546)): 195.665 RLU
RLU (Time (s) 233.578 (Taurocholic Acid 233.563, Chenodeoxycholic Acid 233.546)): 155.879 RLU
RLU (Time (s) 239.578 (Taurocholic Acid 239.563, Chenodeoxycholic Acid 239.546)): 121.06 RLU
RLU (Time (s) 245.578 (Taurocholic Acid 245.563, Chenodeoxycholic Acid 245.546)): 124.983 RLU
RLU (Time (s) 293.578 (Taurocholic Acid 293.563, Chenodeoxycholic Acid 293.546)): 26.9674 RLU
RLU (Time (s) 299.578 (Taurocholic Acid 299.563, Chenodeoxycholic Acid 299.546)): 2.882 RLU
RLU (Time (s) 305.578 (Taurocholic Acid 305.563, Chenodeoxycholic Acid 305.546)): 10.8603 RLU
RLU (Time (s) 311.578 (Taurocholic Acid 311.563, Chenodeoxycholic Acid 311.546)): -14.8461 RLU
RLU (Time (s) 317.578 (Taurocholic Acid 317.563, Chenodeoxycholic Acid 317.546)): -4.053 RLU
RLU (Time (s) 323.578 (Taurocholic Acid 323.563, Chenodeoxycholic Acid 323.546)): -64.2935 RLU
RLU (Time (s) 329.578 (Taurocholic Acid 329.563, Chenodeoxycholic Acid 329.546)): -47.603 RLU
RLU (Time (s) 335.578 (Taurocholic Acid 335.563, Chenodeoxycholic Acid 335.546)): -52.8312 RLU
RLU (Time (s) 341.578 (Taurocholic Acid 341.563, Chenodeoxycholic Acid 341.546)): -81.682 RLU
RLU (Time (s) 347.578 (Taurocholic Acid 347.563, Chenodeoxycholic Acid 347.546)): -84.764 RLU
RLU (Time (s) 353.578 (Taurocholic Acid 353.563, Chenodeoxycholic Acid 353.546)): -78.8648 RLU
RLU (Time (s) 359.578 (Taurocholic Acid 359.563, Chenodeoxycholic Acid 359.546)): -73.3268 RLU
Activation threshold concentration TAS2R14 (lowest concentration with significantly increased fluorescence vs empty vector (p < 0.01)): 0.3 µM
